Data on 13 compounds can be found in paper PMC5641120, “Small-molecule inhibitors of PD-1/PD-L1 immune checkpoint alleviate the PD-L1-induced exhaustion of T-cells” (Oncotarget, 2017).

For data set [1], the system named is PD-L1 aAPC/CHO-K1 cells (aAPCs). As to the kind of experiment: Toxicity towards aAPCs. It counts as cell-based. Particulars: modified CHO-K1 cells (aAPCs), 48 h treatment.
Data set [2] has as its system PD-1/PD-L1 immune checkpoint. Nature of the data set: PD1/PD-L1 checkpoint assay (ECs co-cultured with aAPCs, NFAT-luciferase reporter). It counts as cell-based, human. Particulars: for effect on luciferase reporter expression (in words): ECs co-cultured with aAPCs; for RLUmax (maximal relative luminescence): Hill fit, luminescence normalized to DMSO-treated controls; for EC50: Hill fit of luciferase activity, 6 h co-culture of ECs and aAPCs.
Excerpt: A T lymphocyte-like cell line (Jurkat) modified to constitutively express PD-1 and carrying a luciferase reporter gene driven by TCR-inducible NFAT response element (Effector Cells, ECs) was used in T cell activation experiments. When antigen-presenting surrogate CHO cells, constitutively expressing the TCR agonist and PD-L1 (aAPCs) are presented to these ECs in co-culture, TCR signaling is repressed by PD-1 and the reporter remains silenced. Agents efficiently interfering with the PD-1/PD-L1 interaction activate the expression of the reporter gene resulting in the increase in luminescence intensity.
To verify the potency of BMS compounds in the inhibition of the PD-1/PD-L1 interactions, a cell-based model of the PD-1/PD-L1 immune checkpoint blockade was used. In the assay, two model cell lines are utilized: the artificial Antigen-Presenting Cells (PD-L1^+ aAPC/CHO-K1 cells, called aAPCs) overexpressing TCR ligand and PD-L1, and T cell surrogate, a modified Jurkat T cell line overexpressing PD-1 and carrying a luciferase reporter under the control of NFAT promoter (PD-1 Effector Cells, called ECs) [30]. […] Additionally, the cells were propagated in a constant presence of Hygromycin B (50 μg/ml) and G418 (250 μg/ml) to provide a stable expression of the introduced genetic constructs. The two latter antibiotics were omitted in the experiments. Overexpression of PD-1 on ECs and PD-L1 on aAPCs was verified by flow cytometry (not shown) and the presence of the luciferase-expressing gene was verified by monitoring luciferase activity following anti-CD3 antibody stimulation. Antibiotic selection, flow cytometry and reporter expression served as cell line authentication method. The cells were periodically tested and found negative for Mycoplasma contamination using PCR-based method [31].
The aAPCs were seeded in white 96-well plates at the density of 10 000 per well in the culture medium 24 h prior to the assay. […] By this, the concentration of DMSO was kept constant in all samples. 95 μl of the medium was removed from the wells and the cells were overlaid with 40 μl of the compound dilutions. […] Following 6 h incubation at 37°C, the plates were equilibrated at room temperature for 10 min and 80 μl of the Bio-Glo reagent (Promega) was added to each well. After incubation for 10 min, luminescence was quantified using FlexStation 3 (Molecular Devices). Half maximal effective concentrations (EC50) and maximal luminescence values (RLUmax) were determined by fitting the Hill equation to the experimental data.

The target in data set [3] is T1, sPD-L1 interaction with PD-1 receptor exposed at the cell surface (Homo sapiens, UniProt Q9NZQ7).
T1 construct: made in house; PD-1 stably overexpressed on Jurkat PD-1 Effector Cells from Promega
As to the kind of experiment: Flow cytometry binding of fluorescently labeled sPD-L1 (PD-L1-Atto) to PD-1 expressing cells. The following applies: PD-L1-Atto 1.5 μM pre-incubated with 1 μM BMS compound or 125 μg/ml antibody. It counts as cell-based. As for the experimental part: To test if the observed effect of BMS compounds was directly associated with the decreased sPD-L1 recruitment to the cell surface of the PD-1-expressing cells, a His-tagged sPD-L1 was labeled with the Ni-NTA-conjugated fluorescent dye and flow cytometry analysis was performed. When ECs were contacted with labeled sPD-L1, a clear staining was observed (Figure 3B).
Binding of sPD-L1 (aa 18–134) to ECs was evaluated by flow cytometry. The His-tagged PD-L1 protein or its mutants were stained with NTA-Atto 647 N fluorescent dye (Sigma Aldrich) for 2 h at 22°C, at 8:1 molar ratio (protein:dye). PD-L1-Atto was formulated in 150 μl PBS with the tested compounds or antibodies. The samples were incubated for 30 min at 4°C in the dark. Meanwhile, ECs were centrifuged, washed with PBS and suspended in fresh PBS at concentration of 1 × 10^6 cells per ml. 50 μl of ECs was added to each sample and incubated on ice for additional 60 min. The final concentrations of the components were: 25 μg/ml of PD-L1 (1.5 μM), 125 μg/ml the anti-PD-L1 antibodies and control antibodies and 1 μM of the BMS compounds. The samples were analyzed using the BD FACS Verse flow cytometer and BD FACSuite v1.0.6 software.

For data set [4], the target named is T2, human PD-L1 (Homo sapiens, UniProt Q9NZQ7).
T2 construct: human PD-L1 (residues 18–134, C-terminal His-tag); His-tag (C); made in house
Nature of the data set: 1H-15N HMQC NMR titration of PD-L1. It counts as binding. The following applies: 15N labeled PD-L1, line broadening upon compound addition. How it is done: Based on the two recent Bristol-Myers Squibb patents, the selection of the BMS compounds was done to obtain high diversity of the chemical structures along all modifications of distal, flexible moieties exposed to the solvent (Figure 1A). The compounds were synthesized as described previously with modifications. All compounds were tested for the interaction with PD-L1 using the ^1H-^15N HMQC NMR titration experiment with positive results, as reported elsewhere and in this manuscript (see below). In order to verify the blockade of the PD-1/PD-L1 interaction by the compounds an NMR-based AIDA was performed. Upon the PD-L1 binding the broadening of ^1H-^15N resonance signals of the ^15N labeled PD-1 is observed due to an increased transverse relaxation rate of the higher molecular weight entities. […] All the compounds efficiently disrupted the complex formed by human PD-1 and PD-L1 proteins, as visualized by the restoration of narrow ^1H-^15N signals of PD-1 ([26] and (Figure 1B)).
For further compound development it is of high importance to define the minimal fragments essential for the binding to the target protein. For this, BMS-1166 and its fragments were tested for interaction with PD-L1 using NMR method. From the six decomposition fragments tested, four retained PD-L1 binding potential (Figure 5).
Uniform ^15N labelling was obtained by expressing proteins in the M9 minimal medium containing ^15NH4Cl as the sole nitrogen source. For NMR measurements the buffer was exchanged by gel filtration to PBS pH 7.4 (PD-L1) or 25 mM sodium phosphate containing 100 mM NaCl pH 6.4 (PD-1). 10% (v/v) of D2O was added to the samples to provide the lock signal. All spectra were recorded at 300K using a Bruker Avance III 600 MHz spectrometer. The interaction of the compounds with PD-L1 was evaluated by monitoring the perturbations in chemical shifts of NMR resonances in the ^1H-^15N 2D HMQC upon titration with the compound. The ability of tested compounds to dissociate PD-L1/PD-1 was evaluated using the Antagonist Induced Dissociation Assay (AIDA). In brief, ^15N-labeled PD-1 (0.2 mM) was slightly overtitrated with the unlabeled PD-L1. The compounds were aliquoted into the resulting mixture. During the experiment the ^1H-^15N signals were monitored by the HMQC.

The test system of the next data set is PD-1/sPD-L1. Nature of the data set: PD-1/sPD-L1 effector assay (anti-CD3 activated ECs, luciferase). It counts as cell-based, human. The following applies: anti-CD3, sPD-L1 0.6 μM, BMS compounds 0.12-3 μM; highest concentrations = 2- and 5-fold molar excess over sPD-L1; 24 h.
The target of data set [5] is T3, sPD-L1 (Homo sapiens, UniProt Q9NZQ7).
T3 construct: human PD-L1 (residues 18–134, C-terminal His-tag); His-tag (C); made in house
Nature of the data set: BS3 cross-linking experiment (SDS-PAGE). Particulars: hPD-L1 10 μM, compound 1:1 molar ratio. As for the experimental part:
(§1) The formation of solution-stable PD-L1 dimers in the presence of BMS compounds was characterized previously for BMS-202 [26]. The crystal structures of BMS-1001 and −1166 bound to PD-L1 indicated similar properties of the compounds, but this required verification by in-solution assays. […] This was verified by a crosslinking experiment. sPD-L1 preincubated in the presence of a cross-linking agent (bis(sulfosuccinimidyl)suberate, BS3) migrated in SDS-PAGE as a single band corresponding to […] protein.
hPD-L1 was concentrated to 10 μM in PBS pH 7.4 and mixed with BMS-1001 or BMS-1166 in the 1:1 molar ratio, followed by the addition of the BS3 cross-linking reagent at 0.25, 0.5 or 1mM final concentration (Thermo Scientific). After 30-min incubation at room temperature, the reaction was quenched by the addition of Tris pH 7.5 to the final concentration of 25 mM. Control sample contained hPD-L1 and 1 mM BS3 reagent. The samples were analyzed by SDS-PAGE.

Data set [6] deals with T3, sPD-L1. Nature of the data set: Complex analysis by gel filtration (size exclusion chromatography). Particulars: inhibitor:protein 3:1 molar ratio. As for the experimental part: as §1
Superdex S75 10/30 HR column was equilibrated with 10 mM Tris pH 8.0 containing 20 mM NaCl. The column was calibrated with globular protein standards. The retention time of hPD-L1 (4 mg/ml) was determined. hPD-L1/inhibitor complexes were formed at 3:1 (inhibitor:protein) molar ratio, incubated for 15 min at room temperature and clarified by centrifugation for 10 min at 15 000 × g. The samples were analyzed in the same manner as the apo-hPD-L1.

Data set [7] is described as follows: Cytotoxicity (metabolic activity assay) against PD-1 Effector Cells. Particulars: human, PD-1 Effector Cells (modified Jurkat T cells, ECs).
Description: (§2) To define the maximum admissible concentrations of BMS compounds for the use in the cell-based assays, the toxicity of the compounds was evaluated with the use of metabolic activity assay. For this, modified Jurkat T cells (ECs) used in all further assays were exposed to the increasing concentration of the tested compounds for 48 h.
(§3) Figure 2 Cytotoxicity and activity of BMS compounds in PD-1/PD-L1 checkpoint assay (A) Cytotoxicity of BMS compounds against the PD-1 Effector Cells was tested using metabolic activity assay following the 48 h treatment of the cells with the indicated compounds. […] The graphs present relative luminescence normalized to the DMSO-treated controls and are representative of the three independent experiments. (D) The result of the fitting of Hill model to experimental data presented on panels B and C. EC50 values represent half maximal effective concentrations, and RLUmax values represent maximal relative luminescence values, and illustrate the potency of the listed molecules in restoring the activity of ECs in the assay.
(§4) 5 000 ECs were seeded on transparent 96-well plates and cultured for 48 h in the presence of increasing concentrations of the BMS compounds or DMSO as a control (the concentration of DMSO was kept constant in all samples). Following the treatment, a metabolic activity test was performed with the use of Biolog Redox Dye Mix MB (BioLog), according to the manufacturer's instructions.
In data set [8] the test system is PD-1 Effector Cells (modified Jurkat T cells, ECs). Described as above. The following applies: ECs, 48 h treatment, metabolic activity assay.
Description: as §2, §3, §4
The target of data set [9] is T2, human PD-L1. More on the design: method as in PMID 27083005. Particulars: shown previously; cited from earlier work.
Another data set addresses T4, human PD-1/PD-L1 complex (Homo sapiens, UniProt Q9NZQ7).
T4 construct: human PD-L1 (residues 18–134, C-terminal His-tag); His-tag (C); made in house
More on the design: method as in PMID 27083005. The following applies: shown previously; cited from earlier work.

T2 sequence (Q9NZQ7 18-134): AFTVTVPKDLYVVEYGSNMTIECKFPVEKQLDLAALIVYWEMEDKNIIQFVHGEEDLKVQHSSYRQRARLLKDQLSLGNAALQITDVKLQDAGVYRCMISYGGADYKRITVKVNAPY
T1 sequence (Q9NZQ7 18-134): as above
T3 sequence (Q9NZQ7 18-134): as above
T4 sequence (Q9NZQ7 18-134, one chain of several): as the sequence (Q9NZQ7 18-134) above
Description for PD-1/sPD-L1: To evaluate the potential of BMS compounds in abrogating the inhibitory effect of sPD-L1 on the activation of T cells, sPD-L1 was pre-incubated with tested compounds and presented to ECs together with the anti-CD3-activating antibody.
For the evaluation of the BMS impact on T cell inhibition by soluble PD-L1, the ECs were stimulated with the anti-CD3 antibody in the presence of the recombinant human sPD-L1. For this, the 96-well white flat bottom plates were coated overnight at 4°C with 5 μg/ml of the anti-CD3 antibody or the isotype control solution in PBS. […] Then, 15 μl of the solution was added to each well of the antibody-coated plate. ECs were centrifuged and diluted to 50 000 per ml, and 60 μl of the cell solution was added to each well. The final concentration of sPD-L1 was 10 μg/ml (0.6 μM). The final concentrations of the BMS compounds were: 0.12, 0.3, 1.2 and 3 μM, giving the following BMS:sPD-L1 molar ratios: 1:5, 1:2, 2:1 and 5:1. The cells were cultured for 24 h and the luciferase activity assay was performed using the Bio-Glo Luciferase Assay System (Promega) according to the manufacturer's instructions.

As usually defined, the EC50 is the concentration needed to bring the measured effect to its halfway point. Read a low EC50 as an effect from little substance. For the compound `Cc1c(COc2cc(OCc3cccc(C#N)c3)c(CN3C[C@H](O)C[C@@H]3C(=O)O)cc2Cl)cccc1-c1ccc2c(c1)OCCO2` [BMS-1166], in data set [1], the “toxicity (in words)” value is “Low toxicity”. Moreover, in data set [2], the “effect on luciferase reporter expression (in words)” value (shortened to “effect”) was “dose-dependently induced the activity of luciferase” and the “RLUmax (maximal relative luminescence)” value is 1.72 ± 0.03. Also, the EC50 in data set [2] (Homo sapiens) was 276 ± 29 nM. Also, the “staining of ECs by labeled sPD-L1 (in words)” value (from here on “staining of ECs”) in data set [3] is on record as “significantly decreased the intensity of staining”. Moreover, the “interaction with PD-L1 (1H-15N HMQC NMR)” value at human PD-L1 [4] is “induced linewidth broadening”. At human PD-L1 [4] (listed as 1), the “interaction with PD-L1 (1H-15N HMQC NMR)” value is given as “active”.

Regarding `Cc1cc(CN[C@H](CO)C(=O)O)c(OCc2cccc(C#N)c2)cc1OCc1cccc(-c2ccc3c(c2)OCCO3)c1C` [BMS-1001], the “toxicity (in words)” value in data set [1] is “Low toxicity”. In data set [2], the “effect” value was “dose-dependently induced the activity of luciferase” and the “RLUmax (maximal relative luminescence)” value is reported as 1.88 ± 0.16. For the same compound, in data set [2] (Homo sapiens), the EC50 amounted to 253 ± 120 nM. Besides, the “restoration of sPD-L1-suppressed activation of ECs (in words)” value (“restoration” below) with PD-1/sPD-L1 was “completely restored cell activation”. In addition, the “staining of ECs” value in [3] is given as “significantly decreased the intensity of staining”. The “interaction with PD-L1 (1H-15N HMQC NMR)” value on human PD-L1 [4] is “induced linewidth broadening”. For the same compound, the “sPD-L1 dimer formation by cross-linking (SDS-PAGE)” value at sPD-L1 [5] was “two bands in SDS-PAGE analysis, corresponding to sPD-L1 monomer and a dimer”. For the same compound, the “sPD-L1 retention time in size exclusion chromatography” value on sPD-L1 [6] was “significantly shortened”. In data set [7], this compound came in with an EC50 at 48 h of 33400 nM.

On to `Cc1c(CO)cccc1-c1ccc2c(c1)OCCO2` [compound 4], for which the “interaction with PD-L1 (1H-15N HMQC NMR)” value on human PD-L1 [4] was “active”.

In the case of `Cc1c(COc2cc(F)c(CNC[C@@H](O)CC(=O)O)cc2F)cccc1-c1ccc2c(c1)OCCO2` [BMS-200], the “effect” value in [2] is given as “did not affect the reporter expression”. In addition, the “toxicity (in words)” value in data set [8] is recorded as “moderate toxicity”.

nivolumab: anti-PD-1 antibody: the “restoration” value in the data set with PD-1/sPD-L1 was “abrogated the effect of sPD-L1”.

Consider `Cc1cccc(CBr)c1C` [compound 6], for which, at human PD-L1 [4], the “interaction with PD-L1 (1H-15N HMQC NMR)” value was “not-active”.

As for `Cc1c(COc2cc(OCc3cccc(C#N)c3)c(C=O)cc2Cl)cccc1-c1ccc2c(c1)OCCO2` [compound 2], the “interaction with PD-L1 (1H-15N HMQC NMR)” value at human PD-L1 [4] is reported as “active”.

Consider atezolizumab: anti-PD-L1 antibody, for which, in data set [2], the EC50 was found to be 0.42 ± 0.049 nM and the “RLUmax (maximal relative luminescence)” value was found to be 2.72 ± 0.02. For the same compound, the “staining of ECs” value in [3] is “significantly decreased the staining”.

With `Cc1c(COc2cc(O)c(C=O)cc2Cl)cccc1-c1ccc2c(c1)OCCO2` [compound 3], the “interaction with PD-L1 (1H-15N HMQC NMR)” value at human PD-L1 [4] is given as “active”.

Take `c1ccc2c(c1)OCCO2` [compound 5]: on human PD-L1 [4], the “interaction with PD-L1 (1H-15N HMQC NMR)” value is listed as “not-active”.

Regarding `COc1cc(OCc2cccc(-c3ccccc3)c2C)cc(OC)c1CN[C@@H](CO)C(C)C` [BMS-242], in the data set with PD-1/sPD-L1, the “restoration” value is recorded as “unspecific decrease in the readout level”. This compound also registered an EC50 at 48 h in [7] of 3000 to 6000 nM.

On to durvalumab: anti-PD-L1 antibody, for which, in data set [2], the EC50 was 0.333 ± 0.068 nM and the “RLUmax (maximal relative luminescence)” value is listed as 2.94 ± 0.08. In data set [3], the “staining of ECs” value was “significantly decreased the staining”.

`Cc1c(COc2ccc(CN3CCCCC3C(=O)O)cc2Br)cccc1-c1ccccc1` (stereo not drawn) [BMS-8]: at human PD-L1 [9], the “binding to PD-L1” value is on record as “bind to PD-L1”. At human PD-1/PD-L1 complex, the “dissociation of human PD-1/PD-L1 complex in vitro” value is “efficiently dissociate the human PD-1/PD-L1 complex”. Further, in data set [8], the “toxicity (in words)” value was “moderate toxicity”.
